Assay results from PubChem BioAssay AID256 (DTP/NCI, 2004).
Toxic doses and inconclusive results are not listed.

Test system: CD2F1 mice, L1210 leukemia ip, survival T/C
Assay: NCI In Vivo Anticancer Drug Screen. Data for tumor model L1210 Leukemia (intraperitoneal) in CD2F1 (CDF1) mice
Details: higher = longer survival
In short: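 In this screen, transplantable tumors were grown in mice given either the compound or its vehicle. Results were expressed as the treated measurement relative to the control measurement.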

[1] = endpoint: mean survival time, dose: 100.0 mg/kg/injection, schedule: Q01DX001 (ip), vehicle: saline with Tween-80
[2] = endpoint: mean survival time, dose: 200.0 mg/kg/injection, schedule: Q01DX001 (ip), vehicle: saline with Tween-80
[3] = endpoint: mean survival time, dose: 100.0 mg/kg/injection, schedule: Q01DX009 (ip), vehicle: saline with Tween-80
[4] = endpoint: mean survival time, dose: 200.0 mg/kg/injection, schedule: Q01DX009 (ip), vehicle: saline with Tween-80
[5] = endpoint: mean survival time, dose: 100.0 mg/kg/injection, schedule: Q04DX003 (ip), vehicle: saline
[6] = endpoint: mean survival time, dose: 200.0 mg/kg/injection, schedule: Q04DX003 (ip), vehicle: saline
[7] = endpoint: mean survival time, dose: 400.0 mg/kg/injection, schedule: Q01DX009 (ip), vehicle: saline with Tween-80

In the case of `C[Si](C)(C)C1C=CC=C1`, the T/C (endpoint: mean survival time, dose: 100.0 mg/kg/injection, schedule: Q04DX002 (ip), vehicle: saline with Tween-80) is reported as 100 % of control, the T/C (endpoint: mean survival time, dose: 200.0 mg/kg/injection, schedule: Q04DX002 (ip), vehicle: saline with Tween-80) is reported as 100 % of control and the T/C (endpoint: mean survival time, dose: 400.0 mg/kg/injection, schedule: Q04DX002 (ip), vehicle: saline with Tween-80) is reported as 92 % of control.
In the case of `N/C(=N\O)c1cn(C2OC(CO)C(O)C2O)c2ncnc(N)c12` (stereo not given), the T/C (endpoint: mean survival time, dose: 8.0 mg/kg/injection, schedule: Q01DX007 (ip), vehicle: saline) is reported as 111 % of control.
With `CCOC(=O)Cc1cnc(SC)nc1Nc1ccc(F)cc1` the T/C [1] was 90 % of control and the T/C [2] was 95 % of control.
For `Nc1ncnc2c1nnn2C1OC(CO)C(O)C1O` (stereo not given), the T/C (endpoint: mean survival time, dose: 10.0 mg/kg/injection, schedule: Q01DX009 (ip), vehicle: Klucel (hydroxypropylcellulose) (HPC)) was 110 % of control, the T/C (endpoint: mean survival time, dose: 15.0 mg/kg/injection, schedule: Q01DX009 (ip), vehicle: Klucel (hydroxypropylcellulose) (HPC)) was 107 % of control and the T/C (endpoint: mean survival time, dose: 28.0 mg/kg/injection, schedule: Q01DX009 (ip), vehicle: Klucel (hydroxypropylcellulose) (HPC)) was 121 % of control. For the same compound, the T/C (endpoint: mean survival time, dose: 63.0 mg/kg/injection, schedule: Q01DX009 (ip), vehicle: Klucel (hydroxypropylcellulose) (HPC)) was 115 % of control.
With `N=c1nc(N)nc(N)n1-c1ccccc1` the T/C (endpoint: mean survival time, dose: 50.0 mg/kg/injection, schedule: Q01DX009 (ip), vehicle: saline with Tween-80) was 98 % of control, the T/C [3] was 102 % of control and the T/C [4] was 102 % of control.
`CC1CC1C(=O)O` (stereo not given) was tested, and the T/C [5] was 102 % of control and the T/C [6] was 102 % of control.
In the case of `O=C(O)CCn1cccc1`, the T/C [1] is reported as 91 % of control and the T/C [2] is reported as 89 % of control.
With `O=C1N[C@@H]2C(=C[C@H](O)[C@@H](O)[C@H]2O)c2cc3c(c(O)c21)OCO3` the T/C (endpoint: median survival time, dose: 0.62 mg/kg/injection, schedule: Q01DX009 (ip), vehicle: saline with Tween-80) was 110 % of control, the T/C (endpoint: median survival time, dose: 1.25 mg/kg/injection, schedule: Q01DX009 (ip), vehicle: saline with Tween-80) was 108 % of control and the T/C (endpoint: median survival time, dose: 2.5 mg/kg/injection, schedule: Q01DX009 (ip), vehicle: saline with Tween-80) was 113 % of control. The T/C (endpoint: median survival time, dose: 5.0 mg/kg/injection, schedule: Q01DX009 (ip), vehicle: saline with Tween-80) was 115 % of control.
For `CCOC(=O)C(=O)C[n+]1cc2ccccc2cc1/C=N/O`, the T/C [5] was 105 % of control, the T/C [6] was 105 % of control and the T/C (endpoint: mean survival time, dose: 400.0 mg/kg/injection, schedule: Q04DX003 (ip), vehicle: saline) was 94 % of control.
`Oc1ccc(O)c(CCCCCc2cc(O)ccc2O)c1` was tested, and the T/C (endpoint: mean survival time, dose: 100.0 mg/kg/injection, schedule: Q01DX009 (ip), vehicle: other) was 102 % of control and the T/C (endpoint: mean survival time, dose: 200.0 mg/kg/injection, schedule: Q01DX009 (ip), vehicle: other) was 98 % of control.
With `O=C(O)CCCCCCC(=O)c1ccccc1` the T/C [3] was 98 % of control, the T/C [4] was 97 % of control and the T/C [7] was 93 % of control.
For `c1ccc(C(=NCCN=C(c2ccccc2)c2ccccc2)c2ccccc2)cc1`, the T/C [3] was 97 % of control, the T/C (endpoint: mean survival time, dose: 100.0 mg/kg/injection, schedule: Q04DX003 (ip), vehicle: saline with Tween-80) was 97 % of control and the T/C [4] was 92 % of control. For the same compound, the T/C (endpoint: mean survival time, dose: 200.0 mg/kg/injection, schedule: Q04DX003 (ip), vehicle: saline with Tween-80) was 97 % of control, the T/C [7] was 95 % of control and the T/C (endpoint: mean survival time, dose: 400.0 mg/kg/injection, schedule: Q04DX003 (ip), vehicle: saline with Tween-80) was 97 % of control.
